Data taken from patent US20170066759A1, “AROMATIC 5-MEMBERED HETEROCYCLIC DERIVATIVE HAVING TRPV4-INHIBITING ACTIVITY” (Shionogi & Co., Ltd., priority 2012, published 2017).
pIC50, pKi: −log10 of the molar value.

Molecular target: T1, human TRPV4 (hTRPV4/CHO cells) (Homo sapiens, UniProt Q9HBA0)
T1 construct: expressed in transfected cells; host or cells: CHO-K1
Test: Test Example 1: TRPV4 inhibitory activity (IC50 value), 4α-PDD stimulation, Fluo4 calcium fluorescence (FLIPR TETRA)
Type: cell-based
Settings: Test Example 1, 4α-PDD stimulation, read-out: Test 1 IC50

T1 sequence (Q9HBA0 whole entry): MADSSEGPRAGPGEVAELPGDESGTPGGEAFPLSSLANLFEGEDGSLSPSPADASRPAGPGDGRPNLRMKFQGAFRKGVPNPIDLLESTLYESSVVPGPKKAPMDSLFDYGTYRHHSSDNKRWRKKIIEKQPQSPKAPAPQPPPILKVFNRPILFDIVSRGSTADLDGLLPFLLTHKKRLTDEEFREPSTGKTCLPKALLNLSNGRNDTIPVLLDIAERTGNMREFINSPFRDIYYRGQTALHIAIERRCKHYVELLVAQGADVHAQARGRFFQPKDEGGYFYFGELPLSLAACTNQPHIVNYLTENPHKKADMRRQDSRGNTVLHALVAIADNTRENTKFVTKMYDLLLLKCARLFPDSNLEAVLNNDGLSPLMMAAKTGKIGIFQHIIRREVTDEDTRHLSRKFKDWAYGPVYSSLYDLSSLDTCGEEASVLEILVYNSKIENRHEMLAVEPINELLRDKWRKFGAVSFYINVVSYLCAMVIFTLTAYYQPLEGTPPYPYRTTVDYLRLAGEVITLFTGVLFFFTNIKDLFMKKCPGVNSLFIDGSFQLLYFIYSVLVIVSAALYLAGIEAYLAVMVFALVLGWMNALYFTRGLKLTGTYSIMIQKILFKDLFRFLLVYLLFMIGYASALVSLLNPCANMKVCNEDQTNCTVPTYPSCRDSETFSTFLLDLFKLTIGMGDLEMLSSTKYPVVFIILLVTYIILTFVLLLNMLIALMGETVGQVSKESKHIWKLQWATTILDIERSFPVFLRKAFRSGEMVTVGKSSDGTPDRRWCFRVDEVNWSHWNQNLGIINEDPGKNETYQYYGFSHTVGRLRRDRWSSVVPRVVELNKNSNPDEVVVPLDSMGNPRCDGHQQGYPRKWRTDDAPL

| Structure (SMILES) | pIC50 |
| --- | --- |
| Cc1nc(C)c(-c2csc(NC(=O)C3CC3(F)F)n2)s1 (stereo not drawn) [Compound I-27] | 6.00 to 7.00 |
| Cc1nc(C)c(-c2csc(NC(=O)C3Cc4ccccc4C3)n2)s1 [Compound I-43] | > 7.00 |
| NC(=O)NCc1nc(CO)sc1-c1csc(NC(=O)C2CN(c3ccc(C(F)(F)F)cc3)C2)n1 [Compound I-345] | > 7.00 |
| Cc1nc(C)c(-c2csc(NC(=O)C3(CO)CN(c4ccc(C(F)(F)F)cc4)C3)n2)s1 (racemic) [Compound I-532] | > 7.00 |
| O=C(Nc1nc(-c2sc(CO)nc2CO)cs1)C1CCC(C(F)(F)F)CC1 (stereo not drawn) [Compound I-253] | 6.00 to 7.00 |
| Cc1nc(C)c(-c2csc(NC(=O)Cc3cccc(C(=O)NC(C(C)(C)C)C(F)(F)F)n3)n2)s1 (stereo not drawn) [Compound I-507] | > 7.00 |
| Cc1nc(C)c(-c2csc(NC(=O)Cn3cc(-c4ccc(Cl)cc4)nn3)n2)s1 [Compound I-423] | > 7.00 |
| Cc1nc(C)c(-c2csc(NC(=O)Cc3cccc(NC(=O)C(F)(F)F)c3)n2)s1 [Compound I-417] | > 7.00 |
| Cc1nc(C)c(-c2csc(NC(=O)Cc3cc(OCCO)cc(C(=O)N[C@H](c4ccccc4)C(F)(F)F)c3)n2)s1 [Compound I-515] | 6.00 to 7.00 |
| CON(C)C(=O)c1nc(C)c(-c2csc(NC(=O)Cc3c(F)cccc3F)n2)s1 [Compound I-105] | 5.10 to 6.00 |

Molecular target: T1, human TRPV4 (hTRPV4/CHO cells)
Test: Test Example 4: TRPV4 inhibitory activity (Ki value), 4α-PDD stimulation, Fluo-3 calcium fluorescence (FDSS 3000)
Type: cell-based
Settings: 4α-PDD, Fluo-3, Ki calculated from IC50 and EC50 of 4α-PDD, read-out: TRPV4 inhibitory activity (Ki value)
Protocol: TRPV4 Inhibitory Activity (Ki Value)
For each compound, TRPV4 inhibitory activity was measured using cells.
(Method) The procedures of evaluating TRPV4 inhibitory activity of a compound are as follows.
(1) TRPV4 inhibitory activity was measured using CHO-K1 cells stably expressing human TRPV4 (hTRPV4/CHO cells).
(2) Cells were subcultured using the MEM-α medium (SIGMA M4526: 500 ml), FBS (HyCloneSH30070.03: 10%), L-Glutamine 200 mmol/L (GIBCO: 4 mmol/L), P/S (nacalai tesque: 1%), G418 (nacalai tesque: 1 mg/mL).
(3) The 96-well plates which hTRPV4/CHO cells were seeded at densities of 2×10^4 cells/well in the culture medium in the day before the experimental day, and cultured in a CO2 incubator in the presence of 5% CO2 at 37° C. for 24 hours was used as assay plates.
(4) Cells were washed with assay buffer (Hank's Balanced Salt Solution 9.8 g, 1 mol/L HEPES (pH7.5), 250 mmol/L probenecid).
(5) Fluo-3, fluorescent dye for Ca influx assay was added to each well, then the assay plate was incubated in a CO2 incubator in the presence of 5% CO2 at 37° C. for one hour (final conc.; 5 μmol/L Fluo-3).
(6) The assay plate was washed with the assay buffer, and the buffer was remained at 30 μL/well. Then the assay plate was incubated for 10 min at 37° C.
(7) 20 μL of diluted compound solution was added to each well of assay plate, and mixed with built-in Pipette and Mixer of the fluorescence analysis system FDSS 3000 (Hamamatsu Photonics).
(8) 50 μL of 4α-PDD solution (concluding 0.1% Pluronic F-127) was applied to each well of assay plate and mixed.
(9) The fluorescent intensity was measured by FDSS 3000 for 8 min from the point of time addition the compound solution, at Ex 480 nm, Em 540 nm wavelength.
TRPV4 inhibitory activity (Ki value) of a compound was calculated according to the following procedure.
(10) In the presence of the compound, the difference between maximal and minimal of fluorescent intensity value for 8 min from just before addition of 4α-PDD solution was calculated, and it was referred as Max-Min value. Max-Min value of the Ruthenium Red at 10 μM was defined as 100% inhibitory activity, Max-Min value in the absence of the compound was defined as 0% inhibitory activity. TRPV4 inhibitory activity of the compound was calculated by the following formula.
(1−(Max−Min value of the compound−100% inhibitory activity)/(0% inhibitory activity−100% inhibitory activity))×100
(11) By the following formula, inhibitory activity was calculated at 10 points with three fold serial dilution, in the final concentration of the compound from 10 μmol/L to 0.5 nmol/L. The IC50 value was calculated by dose-response curve.
100−[(fluorescent intensity in the presence of the compound−fluorescent intensity of back ground)/(total fluorescent intensity−fluorescent intensity of back ground)]×100
(12) In the presence of the compound, activity of 4α-PDD was measured at 9 points with three fold serial dilution from 20 μmol/L. Activity of 4α-PDD was calculated by the following formula.
(Max−Min value of the each 4α-PDD concentration−0% activity)/(100% activity−0% activity))×100
(13) Effective activity was calculated in 4α-PDD the above. The EC50 value was calculated by dose-response curve.
(14) The Ki value of a compound was calculated by the following formula.
Ki=IC50 value/1+([A]/EC50)
[A]: Concentration of agonist (nmol/L)

| Structure (SMILES) | pKi |
| --- | --- |
| Cc1nc(C)c(-c2csc(NC(=O)Cc3ccc(C(F)(F)F)c(F)c3)n2)s1 [Compound I-20] | 7.46 |

Same assay, conditions: Test Example 4, 4α-PDD stimulation, read-out: Test 4 Ki

| Structure (SMILES) | pKi |
| --- | --- |
| Cc1nc(C)c(-c2csc(NC(=O)C3CC3(F)F)n2)s1 (stereo not drawn) [Compound I-27] | > 7.00 |
| Cc1nc(C)c(-c2csc(NC(=O)Cc3ccccn3)n2)s1 [Compound I-7] | 6.00 to 7.00 |
| Cc1nc(C)c(-c2csc(NC(=O)[C@H]3CC[C@H](Cl)C3)n2)s1 (racemic) [Compound I-55] | > 7.00 |
| Cc1nc(C)c(-c2csc(NC(=O)C3Cc4ccccc4C3)n2)s1 [Compound I-43] | > 7.00 |
| Cc1nc(C)c(-c2csc(NC(=O)C(C)Oc3ccc(Cl)cc3)n2)s1 (stereo not drawn) [Compound I-12] | 6.00 to 7.00 |
| Cc1nc(C)c(-c2csc(NC(=O)C3(C)CC3)n2)s1 [Compound I-28] | 6.00 to 7.00 |
| CCCCCCCCCCCC(=O)Nc1nc(-c2sc(C)nc2C)cs1 [Compound I-220] | 6.00 to 7.00 |
| Cc1nc(C)c(-c2csc(NC(=O)c3ccc(Cl)cc3)n2)s1 [Compound I-227] | 6.00 to 7.00 |
| Cc1nc(C)c(-c2csc(NC(=O)Cc3c[nH]c4ccccc34)n2)s1 [Compound I-44] | 6.00 to 7.00 |
| COc1ccc(Nc2nc(-c3sc(C)nc3C)cs2)cc1 [II-29] | 6.00 to 7.00 |
| CCCCCCCC(=O)Nc1nc(-c2sc(C)nc2C)cs1 [Compound I-221] | > 7.00 |
| Cc1nc(C)c(-c2csc(NC(=O)Nc3ccc(Br)cc3)n2)s1 [Compound I-233] | 5.52 to 6.00 |
| Cc1nc(C)c(-c2csc(NC(=O)C3(O)CC3)n2)s1 [Compound I-26] | 6.00 to 7.00 |
| Cc1nc(C)c(-c2csc(NC(=O)CCc3ccccc3)n2)s1 [Compound I-228] | 6.00 to 7.00 |
| Cc1nc(C)c(-c2csc(NC(=O)CCC(F)(F)F)n2)s1 [Compound I-38] | > 7.00 |
| Cc1nc(C)c(-c2csc(NC(=O)CC(F)(F)F)n2)s1 [Compound I-45] | 6.00 to 7.00 |
| Cc1nc(C)c(-c2csc(NC(=O)CC3CCC3)n2)s1 [Compound I-54] | > 7.00 |
| O=C(Cc1ccc(C(F)(F)F)cc1)Nc1nc(-c2sc(Cl)nc2Cl)cs1 [Compound I-15] | 6.00 to 7.00 |
| CCCC(=O)Nc1nc(-c2sc(C)nc2C)cs1 [Compound I-219] | 6.00 to 7.00 |
| C=C(C)c1ncc(-c2csc(NC(=O)Cc3ccc(S(=O)(=O)C(F)(F)F)cc3)n2)s1 [Compound I-25] | 6.00 to 7.00 |
| O=C(Nc1nc(-c2sc(Cl)nc2Cl)cs1)C1CCC(F)(F)C1 (stereo not drawn) [Compound I-535] | 6.00 to 7.00 |
| Cc1nc(C)c(-c2csc(NC(=O)C(C)(C)Oc3ccc(Cl)cc3)n2)s1 [Compound I-11] | 6.00 to 7.00 |
| Cc1nc(C)c(-c2csc(NC(=O)Cc3cc(F)cc(F)c3)n2)s1 [Compound I-52] | > 7.00 |
| Cc1nc(C)c(-c2csc(NC(=O)c3ccc(Br)cc3)n2)s1 [Compound I-232] | 6.00 to 7.00 |
| CC(=O)c1ccc(Nc2nc(-c3sc(C)nc3C)cs2)cc1 [II-25] | 6.00 to 7.00 |
| Cc1nc(C)c(-c2csc(NC(=O)Cc3ccc(C(F)(F)F)c(F)c3)n2)s1 [Compound I-20] | > 7.00 |
| Cc1nc(C)c(-c2csc(NC(=O)C3CCC(NCC(F)(F)F)C3)n2)s1 (racemic) [Compound I-39] | 6.00 to 7.00 |
| Cc1nc(C)c(-c2csc(NC(=O)Cc3ccc(OC(F)(F)F)cc3)n2)s1 [Compound I-21] | > 7.00 |

| Structure (SMILES) | pKi |
| --- | --- |
| Cc1nc(C)c(-c2csc(Nc3ccc(Cl)cc3)n2)s1 [II-26] | 6.00 to 7.00 |
| CCCCCC(=O)Nc1nc(-c2sc(C)nc2C)cs1 [Compound I-222] | > 7.00 |
| Cc1nc(C)c(-c2csc(NC(=O)C(F)c3ccccc3)n2)s1 (stereo not drawn) [Compound I-8] | 6.00 to 7.00 |
| Cc1nc(C)c(-c2csc(Nc3ccc(F)cc3)n2)s1 [II-27] | 6.00 to 7.00 |
| Cc1nc(C)c(-c2csc(NC(=O)CC3CC3)n2)s1 [Compound I-33] | 6.00 to 7.00 |
| Cc1nc(C)c(-c2csc(NC(=O)COc3ccc(Cl)cc3)n2)s1 [Compound I-229] | > 7.00 |
| Cc1nc(C)c(-c2csc(NC(=O)Cc3ccc(Cl)c(F)c3)n2)s1 [Compound I-48] | > 7.00 |
| Cc1nc(C)c(-c2csc(NC(=O)CCS(=O)(=O)c3ccccc3)n2)s1 [Compound I-41] | 6.00 to 7.00 |
| Cc1nc(C)c(-c2csc(Nc3ccc(N(C)C)cc3)n2)s1 [II-28] | 6.00 to 7.00 |
| Cc1nc(C)c(-c2csc(NC(=O)c3ccc(F)c(Cl)c3)n2)s1 [Compound I-10] | 6.00 to 7.00 |
| Cc1nc(C)c(-c2csc(NC(=O)Cc3c(F)cccc3F)n2)o1 [Compound I-58] | > 7.00 |
| Cc1nc(C)c(-c2csc(NC(=O)CC3CCS(=O)(=O)C3)n2)s1 (stereo not drawn) [Compound I-51] | 5.52 to 6.00 |
| Cc1nc(C)c(-c2csc(NC(=O)CC#N)n2)s1 [Compound I-40] | 6.00 to 7.00 |
| Cc1nc(C)c(-c2csc(NC(=O)C3CCC(=O)C3)n2)s1 (racemic) [Compound I-37] | 5.52 to 6.00 |
| O=C(Cc1ccc(Br)cc1)Nc1nc(-c2cnc(Cl)s2)cs1 [Compound I-16] | 6.00 to 7.00 |
| Cc1nc(C)c(-c2csc(NC(=O)[C@H]3CC[C@H](C#N)C3)n2)s1 (racemic) [Compound I-56] | 6.00 to 7.00 |
| Cc1nc(C)c(-c2csc(NC(=O)[C@H]3CC[C@H](S(=O)(=O)CC(F)(F)F)C3)n2)s1 (racemic) [Compound I-57] | 6.00 to 7.00 |
| Cc1nc(C)c(-c2csc(NC(=O)C(C)(C)c3ccccc3)n2)s1 [Compound I-1] | 6.00 to 7.00 |
| COC(C(=O)Nc1nc(-c2sc(C)nc2C)cs1)c1ccccc1 (stereo not drawn) [Compound I-5] | 6.00 to 7.00 |
| Cc1nc(C)c(-c2csc(NC(=O)CC(C)(C)C)n2)s1 [Compound I-9] | 6.00 to 7.00 |
| Cc1nc(C)c(-c2csc(NC(=O)c3ccccc3)n2)s1 [Compound I-234] | 5.52 to 6.00 |
| Cc1nc(C)c(-c2csc(NC(=O)[C@H]3CC[C@H](SCC(F)(F)F)C3)n2)s1 (racemic) [Compound I-536] | > 7.00 |
| Cc1nc(C)c(-c2csc(NC(=O)Cc3ccc(Br)cc3)n2)o1 [Compound I-231] | 6.00 to 7.00 |
| Cc1nc(C)c(-c2csc(NC(=O)Cc3ccc(SC(F)(F)F)cc3)n2)s1 [Compound I-22] | > 7.00 |
| Cc1nc(C)c(-c2csc(NC(=O)Cc3ccc(Cl)cc3)n2)s1 [Compound I-230] | > 7.00 |
| Cc1nc(C)c(-c2csc(NC(=O)C3CCCO3)n2)s1 (stereo not drawn) [Compound I-6] | 5.52 to 6.00 |
| Cc1nc(C)c(-c2csc(Nc3ccccc3)n2)s1 [II-30] | 6.00 to 7.00 |
